Test results: patent publication US12509444B2, “Compounds and methods for CD73 modulation and indications therefor” (Plexxikon Inc., priority 2019, dated 2025)
pIC50: −log10 of the molar value.

Key:
[1] = biological target: T1, Human CD73 (amino acid residues 27-549) (Homo sapiens, UniProt P21589); test: CD73 enzymatic assay (luciferase-based indirect assay, CellTiter-Glo); type: biochemical; conditions: 0.4 nM CD73, 150 μM AMP, 1 hour at room temperature
T1 construct: Human CD73 (amino acid residues 27-549); His tag (N); made in house; host or cells: E. coli
T1 sequence (P21589 27-549): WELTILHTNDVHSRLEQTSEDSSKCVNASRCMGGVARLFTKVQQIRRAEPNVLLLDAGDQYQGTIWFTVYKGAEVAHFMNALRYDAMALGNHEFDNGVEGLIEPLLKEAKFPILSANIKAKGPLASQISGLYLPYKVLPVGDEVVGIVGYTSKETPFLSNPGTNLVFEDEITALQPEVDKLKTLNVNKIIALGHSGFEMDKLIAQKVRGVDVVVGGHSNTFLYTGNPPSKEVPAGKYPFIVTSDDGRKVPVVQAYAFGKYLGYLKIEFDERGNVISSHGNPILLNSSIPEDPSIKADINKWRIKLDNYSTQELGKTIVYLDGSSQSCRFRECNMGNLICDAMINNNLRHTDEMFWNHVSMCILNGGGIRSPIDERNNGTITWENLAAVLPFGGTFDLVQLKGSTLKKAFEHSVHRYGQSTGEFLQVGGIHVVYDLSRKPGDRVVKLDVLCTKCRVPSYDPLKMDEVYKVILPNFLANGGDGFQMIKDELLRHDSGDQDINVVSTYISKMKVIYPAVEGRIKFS
Procedure: CD73 enzymatic activity was measured in a luciferase-based indirect assay using CellTiter-Glo® system from Promega. The luciferase reaction in the presence of ATP is inhibited by AMP, a primary substrate of CD73. Addition of CD73 enzyme to the reaction converts AMP to adenosine, and release the inhibition, producing a luminescent signal. Inhibition of CD73 leads to the decrease of this luminescent signal.
Human CD73 (amino acid residues 27-549) with N-Terminal His tag was purified in E. coli. All the assay components were prepared in 50 mM HEPEs buffer (pH 7.4) with 0.01% Tween® 20. The CD73 enzymatic assay was performed using 0.4 nM CD73 and 150 μM AMP. 9.5 μL of CD73 protein and 9.5 μL of AMP were added to the wells of a 384 well plate containing 1 μL of various concentrations of test compound or DMSO vehicle and incubated for 1 hour at room temperature. 16 wells containing CD73, AMP and 5% DMSO served as high control. 16 wells containing AMP and 5% DMSO served as low control. Enzymatic reaction was stopped and AMP level was measured indirectly by adding 5 μL of CellTiter-Glo® 2.0 reagent and 5 μL of ATP with a final concentration of 1 μM. Following incubation of the plate at room temperature for 30 minutes, luminescent signal was read on a Tecan plate reader. The percentage inhibition at individual concentrations relative to high and low controls was calculated. The data were analyzed by using nonlinear regression to generate IC50 values.

human CD73 = biological target: T2, human CD73 (Homo sapiens, UniProt P21589); test: Inhibitor activity against CD73 in cell based assay (CD73 expressing CHO-K1 cells); conditions: CHO-K1 cells expressing human CD73, 150 μM AMP, 4 hours of incubation; read-out: CHO-K1 CELL VARIANT: CD73 IC50
T2 construct: expressed in transfected cells
T2 sequence (P21589 27-549): T1 sequence (P21589 27-549)
Procedure: Determine Inhibitor Activity Against CD73 in Cell Based Assay
CD73 expressing CHO-K1 cell clones were generated upon stable transfection of a plasmid expressing human CD73 under the control of CMV promoter. Cells were selected in Ham's F-12K (Kaighn's) media supplemented with 10% fetal bovine serum and 1 mg/ml G418 at 37° C. in a humidified incubator supplied with 5% CO2. The assays were performed as follows. Cells were seeded in a 96 well plate in 50 μL of culture media at a density of 1×10^4 per well. Compound at a maximal concentration of 5 mM was serially diluted 1:3 in DMSO for a total of 8 point titration. A 2 μL aliquot of each dilution point was added to 248 μL culture media and 25 µL was added to each well, providing 10 μM compound at the maximum concentration point. AMP was diluted in culture media and 25 μL was added to each well with a final concentration of 150 μM. 4 wells containing 0.2% DMSO treated cells and AMP served as high controls and 4 wells containing media only with 0.2% DMSO and AMP served as low controls. After 4 hours of incubation, 20 μL of the supernatant was transferred to a 384 well plate. AMP level in supernatant was measured indirectly by adding 5 μL of CellTiter-Glo® 2.0 reagent and 5 μL of ATP with a final concentration of 1 μM. Following incubation of plate at room temperature for 30 minutes, luminescent signal was read on a Tecan plate reader. The percentage inhibition at individual concentrations relative to high and low controls was calculated. The data were analyzed by using nonlinear regression to generate IC50 values.

| pIC50 [1] | pIC50 (human CD73) | Compound |
| --- | --- | --- |
| 5.00 to 9.00 | 4.00 to 5.00 | O=C(N[C@@H]1CCN(c2cn[nH]c(=O)c2Cl)C1)OC1CCCCC1 [P-0015, cyclohexyl (R)-(1-(5-chloro-6-oxo-1,6-dihydropyridazin-4-yl)pyrrolidin-3-yl)carbamate] |
| 5.00 to 9.00 | 5.00 to 9.00 | O=C(NC1CCCC1)O[C@@H]1CCN(c2cn[nH]c(=O)c2Cl)C1 [P-0017, (R)-1-(5-chloro-6-oxo-1,6-dihydropyridazin-4-yl)pyrrolidin-3-yl cyclopentylcarbamate] |
| 5.00 to 9.00 | 5.00 to 9.00 | O=C(NC1CCCCC1)O[C@@H]1CCN(c2cn[nH]c(=O)c2Cl)C1 [P-0018, (R)-1-(5-chloro-6-oxo-1,6-dihydropyridazin-4-yl)pyrrolidin-3-yl cyclohexylcarbamate] |
| 5.00 to 9.00 | 4.00 to 5.00 | O=C(NC1CCCC1)O[C@H]1CCN(c2cn[nH]c(=O)c2Cl)C1 [P-0020, (S)-1-(5-chloro-6-oxo-1,6-dihydropyridazin-4-yl)pyrrolidin-3-yl cyclopentylcarbamate] |
| 5.00 to 9.00 | 4.00 to 5.00 | O=C(NC1CCCCC1)O[C@H]1CCN(c2cn[nH]c(=O)c2Cl)C1 [P-0021, (S)-1-(5-chloro-6-oxo-1,6-dihydropyridazin-4-yl)pyrrolidin-3-yl cyclohexylcarbamate] |
| 5.00 to 9.00 | 4.00 to 5.00 | O=C(NC1CCC(F)(F)CC1)N[C@@H]1CCN(c2cn[nH]c(=O)c2Cl)C1 [P-0022, (R)-1-(1-(5-chloro-6-oxo-1,6-dihydropyridazin-4-yl)pyrrolidin-3-yl)-3-(4,4-difluorocyclohexyl)urea] |
| 5.00 to 9.00 | 4.00 to 5.00 | O=C(N[C@@H]1CCN(c2cn[nH]c(=O)c2Cl)C1)OC1CCCC1 [P-0030, cyclopentyl (R)-(1-(5-chloro-6-oxo-1,6-dihydropyridazin-4-yl)pyrrolidin-3-yl)carbamate] |
| 5.00 to 9.00 | 5.00 to 9.00 | O=C(NC1CCCCC1)N[C@@H]1CCN(c2cn[nH]c(=O)c2Cl)C1 [P-0039, (R)-1-(1-(5-chloro-6-oxo-1,6-dihydropyridazin-4-yl)pyrrolidin-3-yl)-3-cyclohexylurea] |
| 5.00 to 9.00 | 5.00 to 9.00 | O=C(NC1CCCC1)N[C@@H]1CCN(c2cn[nH]c(=O)c2Cl)C1 [P-0046, (R)-1-(1-(5-chloro-6-oxo-1,6-dihydropyridazin-4-yl)pyrrolidin-3-yl)-3-cyclopentylurea] |
| 5.00 to 9.00 | 4.00 to 5.00 | O=C(NC1CCN(C(=O)C(F)(F)F)CC1)N[C@@H]1CCN(c2cn[nH]c(=O)c2Cl)C1 [P-0047, (R)-1-(1-(5-chloro-6-oxo-1,6-dihydropyridazin-4-yl)pyrrolidin-3-yl)-3-(1-(2,2,2-trifluoroacetyl)piperidin-4-yl)urea] |
| 5.00 to 9.00 | 4.00 to 5.00 | CC(C)(C)OC(=O)N1CCC(NC(=O)N[C@@H]2CCN(c3cn[nH]c(=O)c3Cl)C2)CC1 [P-0051, tert-butyl (R)-4-(3-(1-(5-chloro-6-oxo-1,6-dihydropyridazin-4-yl)pyrrolidin-3-yl)ureido)piperidine-1-carboxylate] |
| 5.00 to 9.00 | 4.00 to 5.00 | CS(=O)(=O)N1CCC(NC(=O)N[C@@H]2CCN(c3cn[nH]c(=O)c3Cl)C2)C1 (stereo partly drawn) [P-0052, 1-((R)-1-(5-chloro-6-oxo-1,6-dihydropyridazin-4-yl)pyrrolidin-3-yl)-3-(1-(methylsulfonyl)pyrrolidin-3-yl)urea] |
| 5.00 to 9.00 | 4.00 to 5.00 | O=C(NC1CCS(=O)(=O)C1)N[C@@H]1CCN(c2cn[nH]c(=O)c2Cl)C1 (stereo partly drawn) [P-0054, 1-((R)-1-(5-chloro-6-oxo-1,6-dihydropyridazin-4-yl)pyrrolidin-3-yl)-3-(1,1-dioxidotetrahydrothiophen-3-yl)urea] |
| 5.00 to 9.00 | 4.00 to 5.00 | Cc1c(N2CC[C@@H](NC(=O)OC(C)(C)C)C2)cn[nH]c1=O [P-0056, tert-butyl (R)-(1-(5-methyl-6-oxo-1,6-dihydropyridazin-4-yl)pyrrolidin-3-yl)carbamate] |
| 5.00 to 9.00 | 4.00 to 5.00 | Cc1c(N2CC[C@@H](NC(=O)NC3CCCC3)C2)cn[nH]c1=O [P-0057, (R)-1-cyclopentyl-3-(1-(5-methyl-6-oxo-1,6-dihydropyridazin-4-yl)pyrrolidin-3-yl)urea] |
| 5.00 to 9.00 | 4.00 to 5.00 | Cc1c(N2CC[C@@H](NC(=O)NC3CCCC3)C2)cnn(C(=O)NC2CCCC2)c1=O [P-0058, (R)-N-cyclopentyl-4-(3-(3-cyclopentylureido)pyrrolidin-1-yl)-5-methyl-6-oxopyridazine-1(6H)-carboxamide] |
| 5.00 to 9.00 | 4.00 to 5.00 | Cc1c(N2CC[C@@H](NC(=O)NC3CCCCC3)C2)cn[nH]c1=O [P-0059, (R)-1-cyclohexyl-3-(1-(5-methyl-6-oxo-1,6-dihydropyridazin-4-yl)pyrrolidin-3-yl)urea] |
| 5.00 to 9.00 | 4.00 to 5.00 | C[C@H]1CN(c2cn[nH]c(=O)c2Cl)C[C@@H]1NC(=O)NC1CCCCC1 [P-0062, 1-((3R,4S)-1-(5-chloro-6-oxo-1,6-dihydropyridazin-4-yl)-4-methylpyrrolidin-3-yl)-3-cyclohexylurea] |
| 5.00 to 9.00 | 4.00 to 5.00 | C[C@H]1CN(c2cn[nH]c(=O)c2Cl)C[C@@H]1NC(=O)OC1CCCCC1 [P-0063, cyclohexyl ((3R,4S)-1-(5-chloro-6-oxo-1,6-dihydropyridazin-4-yl)-4-methylpyrrolidin-3-yl)carbamate] |
| 5.00 to 9.00 | 4.00 to 5.00 | N#Cc1c(N2CC[C@@H](NC(=O)NC3CCCC3)C2)cn[nH]c1=O [P-0064, (R)-1-(1-(5-cyano-6-oxo-1,6-dihydropyridazin-4-yl)pyrrolidin-3-yl)-3-cyclopentylurea] |
| 5.00 to 9.00 | 5.00 to 9.00 | N#Cc1c(N2CC[C@@H](NC(=O)NC3CCCCC3)C2)cn[nH]c1=O [P-0065, (R)-1-(1-(5-cyano-6-oxo-1,6-dihydropyridazin-4-yl)pyrrolidin-3-yl)-3-cyclohexylurea] |
| 5.00 to 9.00 | 4.00 to 5.00 | CN(C(=O)OC1CCCCC1)C1CCN(c2cn[nH]c(=O)c2Cl)C1 (centres unmarked) [P-0068, cyclohexyl (1-(5-chloro-6-oxo-1,6-dihydropyridazin-4-yl)pyrrolidin-3-yl)(methyl)carbamate] |
| 5.00 to 9.00 | 4.00 to 5.00 | N#CC1(NC(=O)OC2CCCCC2)CCN(c2cn[nH]c(=O)c2Cl)C1 (centres unmarked) [P-0074, cyclohexyl (1-(5-chloro-6-oxo-1,6-dihydropyridazin-4-yl)-3-cyanopyrrolidin-3-yl)carbamate] |
| 5.00 to 9.00 | 4.00 to 5.00 | CS(=O)(=O)N1CCC(NC(=O)N[C@@H]2CCN(c3cn[nH]c(=O)c3Cl)C2)CC1 [P-0076, (R)-1-(1-(5-chloro-6-oxo-1,6-dihydropyridazin-4-yl)pyrrolidin-3-yl)-3-(1-(methylsulfonyl)piperidin-4-yl)urea] |
| 5.00 to 9.00 | 5.00 to 9.00 | O=C(NC1CCCCC1)OC1CCN(c2cn[nH]c(=O)c2Cl)C1 (centres unmarked) [P-0077, 1-(5-chloro-6-oxo-1,6-dihydropyridazin-4-yl)pyrrolidin-3-yl cyclohexylcarbamate] |
